In patent US9790351B2, “Fat-binding compositions” (Eastpond Laboratories Limited, priority 2010, dated 2017):
Where a name gives a salt, the structure may show the parent alone. Each block holds one compound with its values, some of them ahead of it.

Key:
[1] = Phase-solubility study of binding constant (Higuchi et al.); details: in water, 1:1 complex
From the text: The resulting 1:1, molar ratio betanin/alpha-cyclodextrin inclusion complex was a red colored, free flowing powder containing 32% betanin by weight, as determined by visible spectrophotometry. […] N. Reilly, Wiley, New York, 1965. vol. 4. pp. 117-212, the complete disclosure of which is hereby incorporated by reference for all purposes. The binding constant of the complex was Kass=85-105 M^−1

[2] = Association constants by capillary electrophoresis; format: binding; details: for Association constant, α-Cyclodextrin / Association constant, β-Cyclodextrin / Association constant, γ-Cyclodextrin: aqueous system, mean of three parallel determinations
Description: The association or binding constants of several selected weak complex-forming guest molecules with alpha-, beta- and gamma-cyclodextrins were experimentally determined. Capillary electrophoresis was utilized to determine the complex binding constants of selected dietary supplements thiamine, niacin and L-arginine in aqueous systems. The following values were determined:
Similarly, capillary electrophoresis was utilized to determine the complex binding constants of selected flavorants ethyl acetate, isoamyl acetate, diacetyl, and N,N-dimethyl formamide with alpha-, beta- and gamma-cyclodextrins.

[3] = Binding constants of flavorants, microcalorimetric method and GC flavorant retention
From the text: The tested compounds included those that are generally soluble or miscible in water. The complexes with the cyclodextrins were formed using methods corresponding to the two specifically described examples below involving apricot flavorant and banana flavorant.
Two types of methods were used to determine the apparent binding constants noted above. The “microcalorimetric” method was used as described in Lewis et al., “Thermodynamics of binding of guest molecules to alpha- and beta-cyclodextrins,” J. Chem. Soc. Perkin. Trans. 2, (15) pp. 2081-2085, 1973, the complete disclosure of which is hereby incorporated by reference for all purposes. Also, by measuring the flavorant retention in the inclusion complexes and the corresponding mechanical mixtures (identical composition except that linear dextrin is used in place of cyclodextrins) with gas chromatography, according to the method described by Reineccius et al., “Encapsulation of flavors using cyclodextrins: comparison of flavor retention in alpha, beta, and gamma types,” Journal of Food Science, 67(9), pp. 3271-3279 (2002), the complete disclosure of which is hereby incorporated by reference for all purposes.

[4] = cited from earlier work
[5] = Laser light scattering particle size distribution of dissolved alpha-cyclodextrin (aggregation); format: physicochemical
From the text: These solutions were then subjected to laser light scattering to determine the distribution of particle sizes in each solution. […] Cyclodextrin molecules in a less aggregated form likely include more available binding sites for complex formation. This experiment thus provides evidence that is consistent with the conclusion that carbonation allows for the availability of more cyclodextrin binding sites for forming complexes with fats.

[6] = Fat binding by a mixture of alpha-, beta- and gamma-cyclodextrins in water (precipitated inclusion complex); details: 0.01M each cyclodextrin and palmitic acid, 4 hours, ambient temperature
From the text: This reaction mixture was stirred for four hours at ambient temperature. […] The precipitate was removed by centrifugation.

HepG2 cells = details: cited from earlier work
[7] = Apparent binding constant determined by chromatography; details: in water at 25° C.
Description: Also, the apparent binding constant of the alpha-cyclodextrin N-tert-butyl-hydroxylamine complex was determined by chromatography.

binding constant Kass [1]: 85 to 105 M⁻¹
SMILES: O=C(O)C1=C/C(=C/C=[N+]2/c3cc(O)c(OC4OC(CO)[C@@H](O)C(O)C4O)cc3CC2C(=O)[O-])CC(C(=O)O)N1 (stereo in doubt) [betanin]

SMILES: O=C(O)c1cccnc1 [Nicotinic acid]
Association constant, α-Cyclodextrin [2]: 17 ± 2
Association constant, β-Cyclodextrin [2]: 37 ± 3
Association constant, γ-Cyclodextrin [2]: 10 ± 2

SMILES: CC(=O)OCCC(C)C [isoamyl acetate]
Association constant K, α-Cyclodextrin [2]: 729 M⁻¹
Association constant K, β-Cyclodextrin [2]: 382 M⁻¹
Association constant K, γ-Cyclodextrin [2]: 32 M⁻¹

SMILES: CCCCC(=O)OCC [ethyl valerate]
Calculated Binding Constants, complex formed with alpha-cyclodextrin [3]: 46 M⁻¹
Calculated Binding Constants, complex formed with beta-cyclodextrin [3]: 80 M⁻¹

SMILES: CN(CC(=O)O)C(=N)N [creatine]
intelligence ([4]; diet supplementation, compared with placebo): significantly increased intelligence
cognitive ability ([4]; elderly): improved cognitive ability

Calculated Binding Constants, complex formed with alpha-cyclodextrin [3]: 45 M⁻¹
Calculated Binding Constants, complex formed with beta-cyclodextrin [3]: 34 M⁻¹
SMILES: C=CCOC(=O)CCC [allyl butyrate]

particle size of cyclodextrin particles ([5]; 2% w/v in carbonated water): < 500 nm
particle size of the majority of cyclodextrin particles ([5]; 2% w/v in non-carbonated tap water): ~1,000 nm
share of the cyclodextrin/palmitic acid complex in the precipitated complex [6]: about 78%
SMILES: OC[C@H]1O[C@@H]2O[C@H]3[C@H](O)[C@@H](O)[C@@H](O[C@H]4[C@H](O)[C@@H](O)[C@@H](O[C@H]5[C@H](O)[C@@H](O)[C@@H](O[C@H]6[C@H](O)[C@@H](O)[C@@H](O[C@H]7[C@H](O)[C@@H](O)[C@@H](O[C@H]1[C@H](O)[C@H]2O)O[C@@H]7CO)O[C@@H]6CO)O[C@@H]5CO)O[C@@H]4CO)O[C@@H]3CO [alpha-cyclodextrin]

SMILES: NCCS(=O)(=O)O [taurine]
secretion of apolipoprotein and lipids (HepG2 cells): reduce the secretion of apolipoprotein 8100 and lipids

SMILES: Cc1ncc(C[n+]2csc(CCO)c2C)c(N)n1 [Thiamine HCl]
Association constant, α-Cyclodextrin [2]: 20 ± 2
Association constant, β-Cyclodextrin [2]: 73 ± 3
Association constant, γ-Cyclodextrin [2]: 8 ± 1

Calculated Binding Constants, complex formed with alpha-cyclodextrin [3]: 60 M⁻¹
Calculated Binding Constants, complex formed with beta-cyclodextrin [3]: 100 M⁻¹
SMILES: CCOC(C)=O [Ethyl acetate]
Association constant K, α-Cyclodextrin [2]: 37 M⁻¹
Association constant K, β-Cyclodextrin [2]: 10 M⁻¹
Association constant K, γ-Cyclodextrin [2]: 9 M⁻¹

Calculated Binding Constants, complex formed with alpha-cyclodextrin [3]: 70 M⁻¹
Calculated Binding Constants, complex formed with beta-cyclodextrin [3]: 98 M⁻¹
SMILES: Cc1occc(=O)c1O [maltol]

Calculated Binding Constants, complex formed with alpha-cyclodextrin [3]: 67 M⁻¹
Calculated Binding Constants, complex formed with beta-cyclodextrin [3]: 45 M⁻¹
SMILES: CCCCCOC(=O)CCCC [amyl valerate]

SMILES: CC(=O)C(C)=O [diacetyl]
Association constant K, α-Cyclodextrin [2]: 28 M⁻¹
Association constant K, β-Cyclodextrin [2]: 43 M⁻¹
Association constant K, γ-Cyclodextrin [2]: 58 M⁻¹

SMILES: CCCCOC(C)=O [Butyl acetate]
Calculated Binding Constants, complex formed with alpha-cyclodextrin [3]: 72 M⁻¹
Calculated Binding Constants, complex formed with beta-cyclodextrin [3]: 85 M⁻¹

Calculated Binding Constants, complex formed with alpha-cyclodextrin [3]: 95 M⁻¹
Calculated Binding Constants, complex formed with beta-cyclodextrin [3]: 110 M⁻¹
SMILES: CCCCOC(=O)CC(C)C [butyl isovalerate]

apparent binding constant [7]: 80 to 105 M⁻¹
SMILES: CC(C)(C)NO [N-tert-butyl-hydroxylamine]

Calculated Binding Constants, complex formed with alpha-cyclodextrin [3]: 85 M⁻¹
Calculated Binding Constants, complex formed with beta-cyclodextrin [3]: 40 M⁻¹
SMILES: CCCCCOC(C)=O [Amyl acetate]

SMILES: N=C(N)NCCC[C@H](N)C(=O)O [L-arginine]
Association constant, α-Cyclodextrin [2]: 21 ± 2
Association constant, β-Cyclodextrin [2]: 100 ± 5
Association constant, γ-Cyclodextrin [2]: 9 ± 2

share of the cyclodextrin/palmitic acid complex in the precipitated complex [6]: undetectable amounts
SMILES: OC[C@H]1O[C@@H]2O[C@H]3[C@H](O)[C@@H](O)[C@@H](O[C@H]4[C@H](O)[C@@H](O)[C@@H](O[C@H]5[C@H](O)[C@@H](O)[C@@H](O[C@H]6[C@H](O)[C@@H](O)[C@@H](O[C@H]7[C@H](O)[C@@H](O)[C@@H](O[C@H]8[C@H](O)[C@@H](O)[C@@H](O[C@H]9[C@H](O)[C@@H](O)[C@@H](O[C@H]1[C@H](O)[C@H]2O)O[C@@H]9CO)O[C@@H]8CO)O[C@@H]7CO)O[C@@H]6CO)O[C@@H]5CO)O[C@@H]4CO)O[C@@H]3CO [gamma-cyclodextrin]
